# Experimental data: article PMC8909834, “An Orally Bioavailable and Highly Efficacious Inhibitor of CDK9/FLT3 for the Treatment of Acute Myeloid Leukemia” (Cancers, 2022)
# How the values were obtained:
# Assay in all cases: Kinase Hotspot radiolabel assay
# Type in all cases: biochemical
# Details in all cases: read-out: % Residual Activity
# NEK1 = molecular target: T1, NEK1 (Homo sapiens, UniProt Q96PY6)
# T1 construct: purchased Reaction Biology Corporation (Kinase HotSpot)
# Summary of the method: (§1)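 Inhibition measured by a radiolabel Hotspot kinase assay as part of a 369-kinase specificity panel, with the compound at 1 µM. Kinases inhibited by more than 90% went on to Ki determination.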
# PKN1/PRK1 = molecular target: T2, PKN1/PRK1 (Homo sapiens, UniProt Q16512)
# T2 construct: purchased Reaction Biology Corporation (Kinase HotSpot)
# Summary of the method: as §1
# MAK = molecular target: T3, MAK (Homo sapiens, UniProt P20794)
# T3 construct: purchased Reaction Biology Corporation (Kinase HotSpot)
# Summary of the method: as §1
# MARK4 = molecular target: T4, MARK4 (Homo sapiens, UniProt Q96L34)
# T4 construct: purchased Reaction Biology Corporation (Kinase HotSpot)
# Summary of the method: as §1
# PBK/TOPK = molecular target: T5, PBK/TOPK (Homo sapiens, UniProt Q96KB5)
# T5 construct: purchased Reaction Biology Corporation (Kinase HotSpot)
# Summary of the method: as §1
# CDK9/cyclin T1 = molecular target: T6, CDK9/cyclin T1 (Homo sapiens, UniProt P50750)
# T6 construct: purchased Reaction Biology Corporation (Kinase HotSpot)
# Summary of the method: as §1
# p70S6K/RPS6KB1 = molecular target: T7, p70S6K/RPS6KB1 (Homo sapiens, UniProt P23443)
# T7 construct: purchased Reaction Biology Corporation (Kinase HotSpot)
# Summary of the method: as §1
# RAF1 = molecular target: T8, RAF1 (Homo sapiens, UniProt P04049)
# T8 construct: purchased Reaction Biology Corporation (Kinase HotSpot)
# Summary of the method: as §1
# TSSK2 = molecular target: T9, TSSK2 (Homo sapiens, UniProt Q96PF2)
# T9 construct: purchased Reaction Biology Corporation (Kinase HotSpot)
# Summary of the method: as §1
# KSR1 = molecular target: T10, KSR1 (Homo sapiens, UniProt Q8IVT5)
# T10 construct: purchased Reaction Biology Corporation (Kinase HotSpot)
# Summary of the method: as §1
# GRK1 = molecular target: T11, GRK1 (Homo sapiens, UniProt Q15835)
# T11 construct: purchased Reaction Biology Corporation (Kinase HotSpot)
# Summary of the method: as §1
# CK1g1 = molecular target: T12, CK1g1 (Homo sapiens, UniProt Q9HCP0)
# T12 construct: purchased Reaction Biology Corporation (Kinase HotSpot)
# Summary of the method: as §1
# SGK2 = molecular target: T13, SGK2 (Homo sapiens, UniProt Q9HBY8)
# T13 construct: purchased Reaction Biology Corporation (Kinase HotSpot)
# Summary of the method: as §1
# GRK4 = molecular target: T14, GRK4 (Homo sapiens, UniProt P32298)
# T14 construct: purchased Reaction Biology Corporation (Kinase HotSpot)
# Summary of the method: as §1
# CSK = molecular target: T15, CSK (Homo sapiens, UniProt P41240)
# T15 construct: purchased Reaction Biology Corporation (Kinase HotSpot)
# Summary of the method: as §1
# PKCa = molecular target: T16, PKCa (Homo sapiens, UniProt P17252)
# T16 construct: purchased Reaction Biology Corporation (Kinase HotSpot)
# Summary of the method: as §1
# MUSK = molecular target: T17, MUSK (Homo sapiens, UniProt O15146)
# T17 construct: purchased Reaction Biology Corporation (Kinase HotSpot)
# Summary of the method: as §1
# EPHA5 = molecular target: T18, EPHA5 (Homo sapiens, UniProt P54756)
# T18 construct: purchased Reaction Biology Corporation (Kinase HotSpot)
# Summary of the method: as §1
# MEK2 = molecular target: T19, MEK2 (Homo sapiens, UniProt P36507)
# T19 construct: purchased Reaction Biology Corporation (Kinase HotSpot)
# Summary of the method: as §1
# MARK1 = molecular target: T20, MARK1 (Homo sapiens, UniProt Q9P0L2)
# T20 construct: purchased Reaction Biology Corporation (Kinase HotSpot)
# Summary of the method: as §1
# Aurora A = molecular target: T21, Aurora A (Homo sapiens, UniProt O14965)
# T21 construct: purchased Reaction Biology Corporation (Kinase HotSpot)
# Summary of the method: as §1
# MYLK3 = molecular target: T22, MYLK3 (Homo sapiens, UniProt Q32MK0)
# T22 construct: purchased Reaction Biology Corporation (Kinase HotSpot)
# Summary of the method: as §1
# MRCKa/CDC42BPA = molecular target: T23, MRCKa/CDC42BPA (Homo sapiens, UniProt Q5VT25)
# T23 construct: purchased Reaction Biology Corporation (Kinase HotSpot)
# Summary of the method: as §1
# PKCzeta = molecular target: T24, PKCzeta (Homo sapiens, UniProt Q05513)
# T24 construct: purchased Reaction Biology Corporation (Kinase HotSpot)
# Summary of the method: as §1
# LYN = molecular target: T25, LYN (Homo sapiens, UniProt P07948)
# T25 construct: purchased Reaction Biology Corporation (Kinase HotSpot)
# Summary of the method: as §1
# PASK = molecular target: T26, PASK (Homo sapiens, UniProt Q96RG2)
# T26 construct: purchased Reaction Biology Corporation (Kinase HotSpot)
# Summary of the method: as §1
# STK21/CIT = molecular target: T27, STK21/CIT (Homo sapiens, UniProt O14578)
# T27 construct: purchased Reaction Biology Corporation (Kinase HotSpot)
# Summary of the method: as §1
# GLK/MAP4K3 = molecular target: T28, GLK/MAP4K3 (Homo sapiens, UniProt Q8IVH8)
# T28 construct: purchased Reaction Biology Corporation (Kinase HotSpot)
# Summary of the method: as §1
# ALK4/ACVR1B = molecular target: T29, ALK4/ACVR1B (Homo sapiens, UniProt P36896)
# T29 construct: purchased Reaction Biology Corporation (Kinase HotSpot)
# Summary of the method: as §1
# p70S6Kb/RPS6KB2 = molecular target: T30, p70S6Kb/RPS6KB2 (Homo sapiens, UniProt Q9UBS0)
# T30 construct: purchased Reaction Biology Corporation (Kinase HotSpot)
# Summary of the method: as §1
# T4 sequence (Q96L34 whole entry): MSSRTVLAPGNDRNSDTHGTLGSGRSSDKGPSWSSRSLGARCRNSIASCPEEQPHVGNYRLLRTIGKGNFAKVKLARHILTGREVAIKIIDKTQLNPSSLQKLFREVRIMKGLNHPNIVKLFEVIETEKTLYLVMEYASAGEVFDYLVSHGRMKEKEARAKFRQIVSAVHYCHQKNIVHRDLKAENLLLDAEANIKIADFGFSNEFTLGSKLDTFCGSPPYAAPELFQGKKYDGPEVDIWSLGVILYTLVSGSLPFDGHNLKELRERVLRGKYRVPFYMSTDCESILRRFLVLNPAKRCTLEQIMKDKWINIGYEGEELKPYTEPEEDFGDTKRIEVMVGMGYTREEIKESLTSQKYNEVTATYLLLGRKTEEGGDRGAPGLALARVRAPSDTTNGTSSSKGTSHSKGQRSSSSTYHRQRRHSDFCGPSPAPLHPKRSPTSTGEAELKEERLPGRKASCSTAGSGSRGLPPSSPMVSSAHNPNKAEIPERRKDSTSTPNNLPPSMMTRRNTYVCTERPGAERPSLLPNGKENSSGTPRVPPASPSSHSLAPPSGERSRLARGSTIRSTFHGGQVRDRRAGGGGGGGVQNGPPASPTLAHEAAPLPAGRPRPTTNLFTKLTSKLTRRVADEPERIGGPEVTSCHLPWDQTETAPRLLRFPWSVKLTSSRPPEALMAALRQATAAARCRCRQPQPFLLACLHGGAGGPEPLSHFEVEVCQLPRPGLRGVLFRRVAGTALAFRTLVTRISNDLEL
# T14 sequence (P32298 whole entry): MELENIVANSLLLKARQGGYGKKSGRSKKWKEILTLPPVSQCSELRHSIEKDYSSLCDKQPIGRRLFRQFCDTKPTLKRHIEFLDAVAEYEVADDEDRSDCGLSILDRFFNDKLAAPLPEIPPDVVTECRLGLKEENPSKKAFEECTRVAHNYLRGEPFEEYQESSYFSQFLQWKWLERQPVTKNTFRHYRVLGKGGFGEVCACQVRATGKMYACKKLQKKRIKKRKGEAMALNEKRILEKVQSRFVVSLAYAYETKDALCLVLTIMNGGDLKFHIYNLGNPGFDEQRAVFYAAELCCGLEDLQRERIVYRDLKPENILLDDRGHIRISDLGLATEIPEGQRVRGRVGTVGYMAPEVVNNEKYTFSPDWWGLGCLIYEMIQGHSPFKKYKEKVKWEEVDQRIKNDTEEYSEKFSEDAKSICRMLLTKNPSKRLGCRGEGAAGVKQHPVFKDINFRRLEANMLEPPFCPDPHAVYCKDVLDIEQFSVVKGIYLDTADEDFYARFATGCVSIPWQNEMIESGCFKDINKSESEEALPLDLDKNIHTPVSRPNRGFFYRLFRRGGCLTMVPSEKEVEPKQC
# T13 sequence (Q9HBY8 whole entry): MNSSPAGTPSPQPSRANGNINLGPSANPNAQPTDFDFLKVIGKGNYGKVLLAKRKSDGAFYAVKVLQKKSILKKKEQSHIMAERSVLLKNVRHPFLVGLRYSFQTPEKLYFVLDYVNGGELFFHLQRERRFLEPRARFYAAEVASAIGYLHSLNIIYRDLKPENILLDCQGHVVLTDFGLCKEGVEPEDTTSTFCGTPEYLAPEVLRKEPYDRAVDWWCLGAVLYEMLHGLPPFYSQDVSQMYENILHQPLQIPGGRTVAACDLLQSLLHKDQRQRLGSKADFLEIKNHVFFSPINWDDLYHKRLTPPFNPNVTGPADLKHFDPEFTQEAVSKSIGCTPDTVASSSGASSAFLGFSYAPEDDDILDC
# T17 sequence (O15146 24-869): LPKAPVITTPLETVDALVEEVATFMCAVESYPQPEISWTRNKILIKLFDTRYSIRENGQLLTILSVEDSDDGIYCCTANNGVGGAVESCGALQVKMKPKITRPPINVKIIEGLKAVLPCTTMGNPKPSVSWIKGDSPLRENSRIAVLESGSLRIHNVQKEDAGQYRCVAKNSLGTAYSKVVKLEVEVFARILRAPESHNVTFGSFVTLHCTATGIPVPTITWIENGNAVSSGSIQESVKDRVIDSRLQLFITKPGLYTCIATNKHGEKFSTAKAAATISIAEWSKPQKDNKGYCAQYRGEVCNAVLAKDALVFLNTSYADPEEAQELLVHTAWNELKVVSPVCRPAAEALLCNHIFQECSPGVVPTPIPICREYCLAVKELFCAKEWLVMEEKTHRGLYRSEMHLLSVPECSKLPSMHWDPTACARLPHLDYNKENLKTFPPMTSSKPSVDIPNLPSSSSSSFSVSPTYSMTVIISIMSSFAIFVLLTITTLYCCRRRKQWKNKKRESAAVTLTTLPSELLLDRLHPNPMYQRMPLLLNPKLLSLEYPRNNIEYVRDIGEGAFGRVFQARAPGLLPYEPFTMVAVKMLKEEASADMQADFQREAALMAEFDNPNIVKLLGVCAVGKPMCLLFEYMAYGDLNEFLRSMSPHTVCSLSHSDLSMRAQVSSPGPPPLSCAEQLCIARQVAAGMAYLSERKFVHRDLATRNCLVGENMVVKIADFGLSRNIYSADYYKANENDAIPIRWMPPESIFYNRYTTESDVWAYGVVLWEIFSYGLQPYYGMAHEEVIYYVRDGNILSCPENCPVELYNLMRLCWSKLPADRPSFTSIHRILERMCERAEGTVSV
# T9 sequence (Q96PF2 whole entry): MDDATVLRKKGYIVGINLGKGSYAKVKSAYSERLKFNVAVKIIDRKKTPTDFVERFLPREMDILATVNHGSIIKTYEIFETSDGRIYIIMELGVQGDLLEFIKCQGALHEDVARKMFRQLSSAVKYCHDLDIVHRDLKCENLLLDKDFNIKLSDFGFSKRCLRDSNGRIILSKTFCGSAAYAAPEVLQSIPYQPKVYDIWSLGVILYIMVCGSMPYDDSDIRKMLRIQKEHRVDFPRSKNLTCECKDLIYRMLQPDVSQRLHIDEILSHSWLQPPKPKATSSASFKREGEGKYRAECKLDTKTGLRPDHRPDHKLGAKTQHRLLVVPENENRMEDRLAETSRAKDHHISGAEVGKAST
# T1 sequence (Q96PY6 whole entry): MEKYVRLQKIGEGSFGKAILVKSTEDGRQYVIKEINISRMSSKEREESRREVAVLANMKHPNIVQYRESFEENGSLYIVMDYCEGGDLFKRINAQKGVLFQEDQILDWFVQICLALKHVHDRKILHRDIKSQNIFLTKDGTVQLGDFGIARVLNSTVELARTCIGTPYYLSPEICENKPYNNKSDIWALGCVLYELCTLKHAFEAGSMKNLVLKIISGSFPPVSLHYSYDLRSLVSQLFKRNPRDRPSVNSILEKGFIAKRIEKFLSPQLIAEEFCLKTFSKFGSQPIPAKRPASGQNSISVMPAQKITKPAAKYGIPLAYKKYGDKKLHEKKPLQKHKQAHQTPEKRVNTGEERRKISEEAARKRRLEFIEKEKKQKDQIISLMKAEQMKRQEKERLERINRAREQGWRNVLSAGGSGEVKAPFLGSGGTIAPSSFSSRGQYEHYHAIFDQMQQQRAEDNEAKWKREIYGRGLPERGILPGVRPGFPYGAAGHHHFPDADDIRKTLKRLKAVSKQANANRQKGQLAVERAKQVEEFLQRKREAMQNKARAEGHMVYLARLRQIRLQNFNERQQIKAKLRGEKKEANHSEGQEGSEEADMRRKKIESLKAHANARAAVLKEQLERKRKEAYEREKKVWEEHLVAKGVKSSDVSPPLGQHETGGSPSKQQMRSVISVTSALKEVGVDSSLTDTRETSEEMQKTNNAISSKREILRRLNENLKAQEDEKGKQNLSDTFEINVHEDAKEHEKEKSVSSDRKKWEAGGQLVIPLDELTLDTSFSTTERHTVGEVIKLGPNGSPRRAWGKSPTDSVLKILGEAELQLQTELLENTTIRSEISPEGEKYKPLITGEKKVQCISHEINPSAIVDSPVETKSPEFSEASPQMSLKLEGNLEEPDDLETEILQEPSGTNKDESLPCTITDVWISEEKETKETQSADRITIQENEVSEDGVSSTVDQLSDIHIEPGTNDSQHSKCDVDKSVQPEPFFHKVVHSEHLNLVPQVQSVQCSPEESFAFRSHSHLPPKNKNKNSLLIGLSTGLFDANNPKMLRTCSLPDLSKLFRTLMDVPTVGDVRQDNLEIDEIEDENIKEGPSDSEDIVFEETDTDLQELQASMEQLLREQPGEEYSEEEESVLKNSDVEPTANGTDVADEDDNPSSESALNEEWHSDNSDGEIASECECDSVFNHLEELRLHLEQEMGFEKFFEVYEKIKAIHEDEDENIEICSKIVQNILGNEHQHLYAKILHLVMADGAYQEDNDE
# T8 sequence (P04049 whole entry): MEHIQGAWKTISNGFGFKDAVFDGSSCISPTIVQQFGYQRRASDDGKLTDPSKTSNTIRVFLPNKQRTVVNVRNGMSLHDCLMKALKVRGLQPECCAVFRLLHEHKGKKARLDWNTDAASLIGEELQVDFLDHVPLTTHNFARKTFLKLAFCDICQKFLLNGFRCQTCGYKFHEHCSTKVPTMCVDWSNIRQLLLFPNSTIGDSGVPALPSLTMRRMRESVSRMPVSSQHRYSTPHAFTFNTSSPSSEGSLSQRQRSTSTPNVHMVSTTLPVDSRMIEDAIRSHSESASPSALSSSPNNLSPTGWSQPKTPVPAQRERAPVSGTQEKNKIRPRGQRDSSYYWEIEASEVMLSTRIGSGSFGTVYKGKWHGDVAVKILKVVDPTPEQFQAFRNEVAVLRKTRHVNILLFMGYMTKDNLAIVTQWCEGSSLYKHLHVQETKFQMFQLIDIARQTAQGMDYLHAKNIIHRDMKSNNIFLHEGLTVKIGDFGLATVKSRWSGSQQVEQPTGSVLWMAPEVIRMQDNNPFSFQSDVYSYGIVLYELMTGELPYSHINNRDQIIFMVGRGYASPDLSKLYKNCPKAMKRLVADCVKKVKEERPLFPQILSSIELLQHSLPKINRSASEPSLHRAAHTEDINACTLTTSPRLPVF
smiles,measurement,setting,value
Cc1cnc(N[C@H]2CC[C@H](N)CC2)nc1-c1cnc2ccc(-c3ccccc3)cn12 [CDDD11-8],remaining activity at 1 µM,NEK1,40.8%
same,remaining activity at 1 µM,PKN1/PRK1,63.8%
same,remaining activity at 1 µM,MAK,67.6%
same,remaining activity at 1 µM,MARK4,22.4%
same,remaining activity at 1 µM,PBK/TOPK,102%
same,remaining activity at 1 µM,CDK9/cyclin T1,18.5%
same,remaining activity at 1 µM,p70S6K/RPS6KB1,94.5%
same,remaining activity at 1 µM,RAF1,98.1%
same,remaining activity at 1 µM,TSSK2,93.8%
same,remaining activity at 1 µM,KSR1,92.3%
same,remaining activity at 1 µM,GRK1,65%
same,remaining activity at 1 µM,CK1g1,62.8%
same,remaining activity at 1 µM,SGK2,113%
same,remaining activity at 1 µM,GRK4,98.2%
same,remaining activity at 1 µM,CSK,91.2%
same,remaining activity at 1 µM,PKCa,76%
same,remaining activity at 1 µM,MUSK,72.7%
same,remaining activity at 1 µM,EPHA5,83.8%
same,remaining activity at 1 µM,MEK2,79.1%
same,remaining activity at 1 µM,MARK1,46.6%
same,remaining activity at 1 µM,Aurora A,79.3%
same,remaining activity at 1 µM,MYLK3,99.7%
same,remaining activity at 1 µM,MRCKa/CDC42BPA,97.7%
same,remaining activity at 1 µM,PKCzeta,89.2%
same,remaining activity at 1 µM,LYN,65.5%
same,remaining activity at 1 µM,PASK,43.1%
same,remaining activity at 1 µM,STK21/CIT,85.9%
same,remaining activity at 1 µM,GLK/MAP4K3,9.75%
same,remaining activity at 1 µM,ALK4/ACVR1B,95.3%
same,remaining activity at 1 µM,p70S6Kb/RPS6KB2,98.6%
